Target: T1, PI3Kδ (Homo sapiens, UniProt O00329)
T1 construct: Full length p110 subunits of PI3k α, β and δ, N-terminally labeled with polyHis tag; polyHis (N); made in house; host or cells: Sf9 insect cells (baculovirus)
Experiment: PI3Kδ Alphascreen assay
Format: biochemical

T1 sequence (O00329 whole entry): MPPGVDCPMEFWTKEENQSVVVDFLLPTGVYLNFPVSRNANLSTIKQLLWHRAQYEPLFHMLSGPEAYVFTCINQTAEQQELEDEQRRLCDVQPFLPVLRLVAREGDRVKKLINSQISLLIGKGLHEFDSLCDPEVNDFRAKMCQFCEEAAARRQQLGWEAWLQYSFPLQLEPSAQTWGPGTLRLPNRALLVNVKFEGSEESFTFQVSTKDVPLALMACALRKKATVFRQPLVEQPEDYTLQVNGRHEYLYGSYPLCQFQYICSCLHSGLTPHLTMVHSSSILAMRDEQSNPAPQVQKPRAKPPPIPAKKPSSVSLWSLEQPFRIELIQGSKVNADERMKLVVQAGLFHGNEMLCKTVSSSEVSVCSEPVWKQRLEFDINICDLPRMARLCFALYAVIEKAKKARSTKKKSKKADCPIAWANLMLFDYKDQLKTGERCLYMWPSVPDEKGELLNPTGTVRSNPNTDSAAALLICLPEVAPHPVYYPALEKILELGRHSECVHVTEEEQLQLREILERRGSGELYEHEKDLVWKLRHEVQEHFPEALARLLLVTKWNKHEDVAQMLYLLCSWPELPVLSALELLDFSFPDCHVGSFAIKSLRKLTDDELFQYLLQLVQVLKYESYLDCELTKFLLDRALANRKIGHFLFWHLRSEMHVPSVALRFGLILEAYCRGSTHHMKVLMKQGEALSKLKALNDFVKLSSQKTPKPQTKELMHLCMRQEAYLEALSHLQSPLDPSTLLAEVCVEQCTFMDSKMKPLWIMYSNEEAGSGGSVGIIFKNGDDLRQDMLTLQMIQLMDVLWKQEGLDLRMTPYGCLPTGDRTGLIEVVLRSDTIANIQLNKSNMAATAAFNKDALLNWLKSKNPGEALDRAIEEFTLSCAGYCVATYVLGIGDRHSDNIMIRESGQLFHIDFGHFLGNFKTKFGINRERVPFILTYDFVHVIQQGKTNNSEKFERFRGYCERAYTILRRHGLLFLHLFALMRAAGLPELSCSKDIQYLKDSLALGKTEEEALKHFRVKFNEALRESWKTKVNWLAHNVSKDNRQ
T1 sequence (P27986 whole entry partner): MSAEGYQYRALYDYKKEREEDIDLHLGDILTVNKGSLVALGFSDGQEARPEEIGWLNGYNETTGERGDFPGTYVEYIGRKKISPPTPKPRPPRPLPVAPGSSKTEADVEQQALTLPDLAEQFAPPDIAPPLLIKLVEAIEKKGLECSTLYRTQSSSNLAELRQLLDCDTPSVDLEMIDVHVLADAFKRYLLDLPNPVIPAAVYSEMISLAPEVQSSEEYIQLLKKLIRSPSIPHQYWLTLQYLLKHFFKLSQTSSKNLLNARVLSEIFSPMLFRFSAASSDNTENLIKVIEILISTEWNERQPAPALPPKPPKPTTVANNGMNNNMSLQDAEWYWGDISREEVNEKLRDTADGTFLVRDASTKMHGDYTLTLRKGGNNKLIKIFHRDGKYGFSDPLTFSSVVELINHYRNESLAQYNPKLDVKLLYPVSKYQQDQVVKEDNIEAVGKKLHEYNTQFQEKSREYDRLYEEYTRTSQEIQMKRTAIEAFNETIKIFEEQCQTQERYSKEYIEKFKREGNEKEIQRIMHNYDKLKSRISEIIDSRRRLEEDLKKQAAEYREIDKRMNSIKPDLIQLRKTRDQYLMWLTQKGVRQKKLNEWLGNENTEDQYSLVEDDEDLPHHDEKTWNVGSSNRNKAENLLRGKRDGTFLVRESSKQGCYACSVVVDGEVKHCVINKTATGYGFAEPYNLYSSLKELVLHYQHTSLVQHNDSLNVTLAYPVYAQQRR

| Structure (SMILES) | Ki [µM] |
| --- | --- |
| Cc1c(N2CCN(S(=O)(=O)c3ccccc3)CC2)nc2cc(F)cc(F)c2c1Nc1cncc(N2CCOCC2)c1 [5,7-difluoro-3-methyl-N-(5-(4-morpholinyl)-3-pyridinyl)-2-(4-(phenylsulfonyl)-1-piperazinyl)-4-quinolinamine] | 0.0334 |
| Cc1c(N2CCN(C(=O)C3CCOCC3)CC2)nc2cc(F)cc(F)c2c1Nc1cncc(N2CCOCC2)c1 [5,7-difluoro-3-methyl-N-(5-(4-morpholinyl)-3-pyridinyl)-2-(4-(tetrahydro-2H-pyran-4-ylcarbonyl)-1-piperazinyl)-4-quinolinamine] | 0.0557 |
| Cc1c(N2CCN(c3ccccc3)CC2)nc2cc(F)cc(F)c2c1Nc1cncc(N2CCOCC2)c1 [5,7-difluoro-3-methyl-N-(5-(4-morpholinyl)-3-pyridinyl)-2-(4-phenyl-1-piperazinyl)-4-quinolinamine] | 0.0781 |
| CCCN1CCN(c2nc3cc(F)cc(F)c3c(Nc3cncc(N4CCOCC4)c3)c2C)CC1 [5,7-difluoro-3-methyl-N-(5-(4-morpholinyl)-3-pyridinyl)-2-(4-propyl-1-piperazinyl)-4-quinolinamine] | 0.0135 |
| Cc1c(-c2ccc(N3CCNCC3)nc2)nc2cc(F)cc(F)c2c1Nc1cncc(N2CCOCC2)c1 [5,7-difluoro-3-methyl-N-(5-(4-morpholinyl)-3-pyridinyl)-2-(6-(1-piperazinyl)-3-pyridinyl)-4-quinolinamine] | 0.432 |
| Cc1c(-c2ccc(N3CCCCC3)nc2)nc2cc(F)cc(F)c2c1Nc1cncc(N2CCOCC2)c1 [5,7-difluoro-3-methyl-N-(5-(4-morpholinyl)-3-pyridinyl)-2-(6-(1-piperidinyl)-3-pyridinyl)-4-quinolinamine] | 0.517 |
| Cc1c(-c2ccc(N3CCOCC3)nc2)nc2cc(F)cc(F)c2c1Nc1cncc(N2CCOCC2)c1 [5,7-difluoro-3-methyl-N-(5-(4-morpholinyl)-3-pyridinyl)-2-(6-(4-morpholinyl)-3-pyridinyl)-4-quinolinamine] | 0.444 |
| Cc1c(N2CCN(CC(F)(F)F)CC2)nc2cc(F)cc(F)c2c1N(CC(F)(F)F)c1cncc(N2CCOCC2)c1 [5,7-difluoro-3-methyl-N-(5-(4-morpholinyl)-3-pyridinyl)-N-(2,2,2-trifluoroethyl)-2-(4-(2,2,2-trifluoroethyl)-1-piperazinyl)-4-quinolinamine] | 0.493 |
| Cc1c(-c2cccnc2)nc2cc(F)cc(F)c2c1Nc1cc(N2CCOC[C@H]2C)cnc1N1CCOCC1 [5,7-difluoro-3-methyl-N-(5-((3R)-3-methyl-4-morpholinyl)-2-(4-morpholinyl)-3-pyridinyl)-2-(3-pyridinyl)-4-quinolinamine] | 0.0695 |
| Cc1c(-c2cccnc2)nc2cc(F)cc(F)c2c1Nc1cc(N2CCOC[C@@H]2C)cnc1N1CCOCC1 [5,7-difluoro-3-methyl-N-(5-((3S)-3-methyl-4-morpholinyl)-2-(4-morpholinyl)-3-pyridinyl)-2-(3-pyridinyl)-4-quinolinamine] | 0.0214 |
| COc1ccccc1-c1ncc(N2CCOCC2)cc1Nc1c(C)c(-c2ccccn2)nc2cc(F)cc(F)c12 [5,7-difluoro-N-(2-(2-methoxyphenyl)-5-(4-morpholinyl)-3-pyridinyl)-3-methyl-2-(2-pyridinyl)-4-quinolinamine] | 0.00853 |
| COc1cc(C)c(-c2ncc(N3CCOCC3)cc2Nc2c(C)c(-c3ccccn3)nc3cc(F)cc(F)c23)c(C)c1 [5,7-difluoro-N-(2-(4-methoxy-2,6-dimethylphenyl)-5-(4-morpholinyl)-3-pyridinyl)-3-methyl-2-(2-pyridinyl)-4-quinolinamine] | 0.000972 |
| COc1ccc(-c2ncc(N3CCOCC3)cc2Nc2c(C)c(-c3cc(C)ccn3)nc3cc(F)cc(F)c23)cc1 [5,7-difluoro-N-(2-(4-methoxyphenyl)-5-(4-morpholinyl)-3-pyridinyl)-3-methyl-2-(4-methyl-2-pyridinyl)-4-quinolinamine] | 0.00598 |
| COc1cncc(-c2ccc(N3CCOCC3)cc2Nc2c(C)c(-c3ccccn3)nc3cc(F)cc(F)c23)c1 [5,7-difluoro-N-(2-(5-methoxy-3-pyridinyl)-5-(4-morpholinyl)-phenyl)-3-methyl-2-(2-pyridinyl)-4-quinolinamine] | 0.000627 |
| COc1ccc(-c2ccc(N3CCOCC3)cc2Nc2c(C)c(-c3ccccc3S(C)(=O)=O)nc3cc(F)cc(F)c23)cn1 [5,7-difluoro-N-(2-(6-methoxy-3-pyridinyl)-5-(4-morpholinyl)-phenyl)-3-methyl-2-(2-(methylsulfonyl)phenyl)-4-quinolinamine] | 0.00272 |
| COc1ccc(-c2ccc(N3CCOCC3)cc2Nc2c(C)c(-c3ccccn3)nc3cc(F)cc(F)c23)cn1 [5,7-difluoro-N-(2-(6-methoxy-3-pyridinyl)-5-(4-morpholinyl)-phenyl)-3-methyl-2-(2-pyridinyl)-4-quinolinamine] | 0.00319 |
| COc1ccc(-c2ccc(N3CCOCC3)cc2Nc2c(C)c(-c3cc(C)ccn3)nc3cc(F)cc(F)c23)cn1 [5,7-difluoro-N-(2-(6-methoxy-3-pyridinyl)-5-(4-morpholinyl)-phenyl)-3-methyl-2-(4-methyl-2-pyridinyl)-4-quinolinamine] | 0.00359 |
| COc1ccc(-c2ccc(N3CCOCC3)cc2Nc2c(C)c(-c3ccccn3)nc3cc(F)cc(F)c23)cc1 [5,7-difluoro-N-(4′-methoxy-4-(4-morpholinyl)-2-biphenylyl)-3-methyl-2-(2-pyridinyl)-4-quinolinamine] | 0.0385 |
| Cc1c(-c2ccccn2)nc2cccc(F)c2c1Nc1cc(N2CCOCC2)ccc1S(C)(=O)=O [5-fluoro-3-methyl-N-(2-(methylsulfonyl)-5-(4-morpholinyl)-phenyl)-2-(2-pyridinyl)-4-quinolinamine] | 0.000485 |

More lines, now with the values ahead:

| Ki [µM] | Structure (SMILES) |
| --- | --- |
| 0.0475 | Cc1c(-c2cc([N+](=O)[O-])ccc2F)nc2cc(F)ccc2c1Nc1cncc(N2CCOCC2)c1 [7-fluoro-2-(2-fluoro-5-nitrophenyl)-3-methyl-N-(5-(4-morpholinyl)-3-pyridinyl)-4-quinolinamine] |
| 0.00239 | Cc1ccnc(-c2nc3c(Cl)cccc3c(Nc3cncc(N4CCOCC4)c3)c2C)c1 [8-chloro-3-methyl-2-(4-methyl-2-pyridinyl)-N-(5-(4-morpholinyl)-3-pyridinyl)-4-quinolinamine] |
| 0.00745 | Cc1c(-c2ccccn2)nc2c(Cl)cccc2c1Nc1cncc(N2CCOCC2)c1 [8-chloro-3-methyl-N-(5-(4-morpholinyl)-3-pyridinyl)-2-(2-pyridinyl)-4-quinolinamine] |
| 0.00949 | Cc1ccnc(-c2nc3c(Cl)cccc3c(Nc3cc(N4CCOCC4)cnc3N3CCOCC3)c2C)c1 [8-chloro-N-(2,5-di-4-morpholinyl-3-pyridinyl)-3-methyl-2-(4-methyl-2-pyridinyl)-4-quinolinamine] |
| 0.00285 | Cc1c(-c2ccccn2)nc2c(Cl)c(F)cc(F)c2c1Nc1cc(N2CCOCC2)cnc1N1CCOCC1 [8-chloro-N-(2,5-di-4-morpholinyl-3-pyridinyl)-5,7-difluoro-3-methyl-2-(2-pyridinyl)-4-quinolinamine] |
| 0.00257 | Cc1c(-c2ccccn2)nc2c(Cl)ccc(F)c2c1Nc1cc(N2CCOCC2)cnc1N1CCOCC1 [8-chloro-N-(2,5-di-4-morpholinyl-3-pyridinyl)-5-fluoro-3-methyl-2-(2-pyridinyl)-4-quinolinamine] |
| 0.0226 | Cc1c(-c2ccccn2)nc2c(Cl)c(F)ccc2c1Nc1cc(N2CCOCC2)cnc1N1CCOCC1 [8-chloro-N-(2,5-di-4-morpholinyl-3-pyridinyl)-7-fluoro-3-methyl-2-(2-pyridinyl)-4-quinolinamine] |
| 0.00157 | Cc1c(-c2cc([C@@H](C)O)ccc2S(C)(=O)=O)nc2cc(F)cc(F)c2c1Nc1cncc(N2CCOCC2)c1 [(1R)-1-(3-(5,7-difluoro-3-methyl-4-((5-(4-morpholinyl)-3-pyridinyl)amino)-2-quinolinyl)-4-(methylsulfonyl)phenyl)-ethanol] |
| 0.00308 | Cc1c(-c2ccccn2)nc2cc(F)cc(F)c2c1Nc1cc(C2=CCOCC2)cnc1C1=CCOCC1 [N-(2,5-di-3,6-dihydro-2H-pyran-4-yl-3-pyridinyl)-5,7-difluoro-3-methyl-2-(2-pyridinyl)-4-quinolinamine] |
| 0.119 | C=Cc1ccnc(-c2nc3cc(F)cc(F)c3c(Nc3cc(N4CCOCC4)cnc3N3CCOCC3)c2C)c1 [N-(2,5-di-4-morpholinyl-3-pyridinyl)-2-(4-ethenyl-2-pyridinyl)-5,7-difluoro-3-methyl-4-quinolinamine] |
| 0.0255 | CCOc1ccc(-c2nc3cc(F)cc(F)c3c(Nc3cc(N4CCOCC4)cnc3N3CCOCC3)c2C)cn1 [N-(2,5-di-4-morpholinyl-3-pyridinyl)-2-(6-ethoxy-3-pyridinyl)-5,7-difluoro-3-methyl-4-quinolinamine] |
| 0.00622 | Cc1c(-c2ccccc2F)nc2cc(F)cc(F)c2c1Nc1cc(N2CCOCC2)cnc1N1CCOCC1 [N-(2,5-di-4-morpholinyl-3-pyridinyl)-5,7-difluoro-2-(2-fluorophenyl)-3-methyl-4-quinolinamine] |
| 0.0334 | COc1cc(-c2nc3cc(F)cc(F)c3c(Nc3cc(N4CCOCC4)cnc3N3CCOCC3)c2C)ccn1 [N-(2,5-di-4-morpholinyl-3-pyridinyl)-5,7-difluoro-2-(2-methoxy-4-pyridinyl)-3-methyl-4-quinolinamine] |
| 0.0185 | Cc1c(-c2ccc(F)nc2)nc2cc(F)cc(F)c2c1Nc1cc(N2CCOCC2)cnc1N1CCOCC1 [N-(2,5-di-4-morpholinyl-3-pyridinyl)-5,7-difluoro-2-(6-fluoro-3-pyridinyl)-3-methyl-4-quinolinamine] |
| 0.0332 | COc1ccc(-c2nc3cc(F)cc(F)c3c(Nc3cc(N4CCOCC4)cnc3N3CCOCC3)c2C)cn1 [N-(2,5-di-4-morpholinyl-3-pyridinyl)-5,7-difluoro-2-(6-methoxy-3-pyridinyl)-3-methyl-4-quinolinamine] |
| 0.0086 | Cc1c(-c2cccc3c2cnn3C)nc2cc(F)cc(F)c2c1Nc1cc(N2CCOCC2)cnc1N1CCOCC1 [N-(2,5-di-4-morpholinyl-3-pyridinyl)-5,7-difluoro-3-methyl-2-(1-methyl-1H-indazol-4-yl)-4-quinolinamine] |
| 0.0161 | Cc1c(-c2cccc3c2ccn3C)nc2cc(F)cc(F)c2c1Nc1cc(N2CCOCC2)cnc1N1CCOCC1 [N-(2,5-di-4-morpholinyl-3-pyridinyl)-5,7-difluoro-3-methyl-2-(1-methyl-1H-indol-4-yl)-4-quinolinamine] |

Source: patent US8940724B2, “Quinoline derivitives and their uses” (Amgen Inc., priority 2009, dated 2015)
